Test results as given in paper PMC8838415, “Discovery of Novel Pleuromutilin Derivatives as Potent Antibacterial Agents for the Treatment of MRSA Infection” (Molecules, 2022).
≈ marks a conversion by molar mass, not a printed value.

Key:
[1] = tested on: MRSA ATCC 43300; experiment: Post antibiotic effect (PAE)
[2] = tested on: MRSA; experiment: Neutropenic murine thigh infection model; type: in vivo, mice
Protocol: The neutropenic murine thigh infection model experiment was performed as described in the literature. Six-week-old SPF-ICR female mice weighing 24–28 g were used for this study. The mice were injected with cyclophosphamide (Mead Johnson Pharmaceuticals, Evansville, Indiana—IN, USA) at a dose of 150 mg/kg 4 days and at a dose of 100 mg/kg 1 day before the experiment to reduce neutrophils and achieve immunosuppression (<0.1 × 10^9/L). A total of 0.1 mL MH broth (MRSA concentration approximately 10^7 CFU/mL) was injected into the posterior thigh of mice to establish the infection model. After the thighs of the mice were infected for 2 h, these mice were randomly divided into 3 groups (3 per group). […] A total of 24 h after the completion of the drug, the mice were euthanized and their thigh tissues were collected. Then, their thigh tissues were weighed and homogenized, respectively, in 3 mL of iced sterile saline. Tissue homogenate was serially diluted 10-fold and plated on MH agar. The resulting bacterial colonies were determined after incubation for 24 h.

[3] = tested on: S. aureus (AD3); experiment: MIC and MBC, broth dilution, S. aureus AD3; type: cell-based; settings: Staphylococcus aureus; S. aureus AD3 (clinical strain)
Procedure, shortened: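 Compounds, in 2.5% tween-80/2.5% DMSO, serially diluted in MH broth over 32–0.01 µg/mL with 5 × 10^5 CFU/mL inoculum, triplicates, 22–26 h at 37 °C; MIC = lowest concentration with no visible growth. MBC from plating non-turbid wells on MH agar, further 22–26 h at 37 °C.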

[4] = tested on: MRSA ATCC 43300; experiment: Constant concentration time-kill curves; type: cell-based, Staphylococcus aureus; settings: 2× MIC, in 9 h
Protocol: The time-kill curve experiments of compound 8 and compound 9 were performed according to a previous report in triplicate. The logarithmic phase of MRSA 43300 was diluted to about 10^6 CFU/mL with MH broth. […] All samples were shaken at 37 °C. Samples (100 μL) were taken at 0, 3, 6, 9 and 24 h from the mixtures. Each sample was diluted decuple continuously with sterile saline. Then, 20 μL of the diluted sample was plated on the sterile MH agar plate and incubated for 22–26 h at 37 °C. The total bacteria on the plates were counted as CFU/mL to calculate the bacterial colonies. The time-kill curve was constructed by scheming log10 CFU/mL of bacteria counts versus time.

- MIC [3]: 0.12 µg/mL (≈ 0.254 µM)
Structure (SMILES): C=C[C@]1(C)C[C@@H](OC(=O)CNc2ccc(F)cc2)[C@]2(C)[C@H](C)CC[C@]3(CCC(=O)[C@H]32)[C@@H](C)[C@@H]1O [Compound 9, 22-(4-Fluoroanilineyl)-22-deoxypleuromutilin]
- PAE ([1]; exposure to 2× MIC for 2 h): 1.54 h
- PAE ([1]; exposure to 4× MIC for 2 h): 1.71 h
- reduction of MRSA load in thigh compared with tiamulin ([2]; 20 mg/kg each, difference to tiamulin group): ~ 0.7 log10 CFU/mL
- reduction of MRSA load in thigh ([2]; 20 mg/kg intravenously, 24 h, compared to the no-drug control group): ~ 1.3 log10 CFU/mL
- MBC [3]: 0.5 µg/mL (≈ 1.06 µM)
- MRSA killed (time-kill) [4]: 99.9%
